Drawing on patent publication US20220370440A1 (Lead Discovery Center GmbH, priority 2018, published 2022), this text covers IC50 and GI50 for 13 compounds.

Where only a bound is given, the exact number is not on record here.

The target in one assay is T1, HER2 INS YVMA (Homo sapiens, UniProt P04626, INS775YVMA).
T1 construct: purchased DPF
Put plainly: Lance Kinase Activity Assay, HER2 INS YVMA (Her2 Exon 20 INSYVMA Lance). The class given is biochemical. Conditions: biochemical Lance assay. In short, it runs like this: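 Kinase phosphorylates a ULight-labelled peptide substrate; Eu anti-phospho antibody gives TR-FRET (ex 340 nm, em 665/615 nm). Compounds in 1:3 serial dilution over 8 steps, reaction started with ATP, 1 h at room temperature, stopped with EDTA-containing detection mix for 1 h. IC50 from sigmoidal dose-response curves.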

For assay [1], the target named is Her2 Exon 20 INSYVMA Ba/F3 (Homo sapiens, UniProt P04626, DUP772-775, cells depend on it). Description: Her2 Exon 20 INSYVMA Ba/F3 CellTiter-Glo. The class given is cell-based. Conditions: CellTiter-Glo, 72 h, read-out: Her2 Exon 20 INSYVMA Ba/F3 CTG IC50. In short, it runs like this:
(§1)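 Ba/F3 cells were seeded, left 24 h at 37 °C/5% CO2, then exposed to compound dilutions in DMSO for 72 h. Viability was read as ATP luminescence (CellTiter-Glo) and IC50 fitted from dose–response curves; DMSO and 10 μM staurosporine defined the controls, and plates needed Z′ ≥0.5.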

Assay [2] deals with EGFR Exon 20 INSNPH Ba/F3 (Homo sapiens, UniProt P00533, DUP771-773, cells depend on it). Put plainly: EGFR Exon 20 INSNPH Ba/F3 CellTiter-Glo. Conditions: CellTiter-Glo, 72 h, read-out: EGFR Exon 20 INSNPH Ba/F3 CTG IC50. The class given is cell-based. In short, it runs like this: as §1
Chain of EGFR Exon 20 INSNPH Ba/F3 (P00533 with tags, fused parts or gaps DUP771-773): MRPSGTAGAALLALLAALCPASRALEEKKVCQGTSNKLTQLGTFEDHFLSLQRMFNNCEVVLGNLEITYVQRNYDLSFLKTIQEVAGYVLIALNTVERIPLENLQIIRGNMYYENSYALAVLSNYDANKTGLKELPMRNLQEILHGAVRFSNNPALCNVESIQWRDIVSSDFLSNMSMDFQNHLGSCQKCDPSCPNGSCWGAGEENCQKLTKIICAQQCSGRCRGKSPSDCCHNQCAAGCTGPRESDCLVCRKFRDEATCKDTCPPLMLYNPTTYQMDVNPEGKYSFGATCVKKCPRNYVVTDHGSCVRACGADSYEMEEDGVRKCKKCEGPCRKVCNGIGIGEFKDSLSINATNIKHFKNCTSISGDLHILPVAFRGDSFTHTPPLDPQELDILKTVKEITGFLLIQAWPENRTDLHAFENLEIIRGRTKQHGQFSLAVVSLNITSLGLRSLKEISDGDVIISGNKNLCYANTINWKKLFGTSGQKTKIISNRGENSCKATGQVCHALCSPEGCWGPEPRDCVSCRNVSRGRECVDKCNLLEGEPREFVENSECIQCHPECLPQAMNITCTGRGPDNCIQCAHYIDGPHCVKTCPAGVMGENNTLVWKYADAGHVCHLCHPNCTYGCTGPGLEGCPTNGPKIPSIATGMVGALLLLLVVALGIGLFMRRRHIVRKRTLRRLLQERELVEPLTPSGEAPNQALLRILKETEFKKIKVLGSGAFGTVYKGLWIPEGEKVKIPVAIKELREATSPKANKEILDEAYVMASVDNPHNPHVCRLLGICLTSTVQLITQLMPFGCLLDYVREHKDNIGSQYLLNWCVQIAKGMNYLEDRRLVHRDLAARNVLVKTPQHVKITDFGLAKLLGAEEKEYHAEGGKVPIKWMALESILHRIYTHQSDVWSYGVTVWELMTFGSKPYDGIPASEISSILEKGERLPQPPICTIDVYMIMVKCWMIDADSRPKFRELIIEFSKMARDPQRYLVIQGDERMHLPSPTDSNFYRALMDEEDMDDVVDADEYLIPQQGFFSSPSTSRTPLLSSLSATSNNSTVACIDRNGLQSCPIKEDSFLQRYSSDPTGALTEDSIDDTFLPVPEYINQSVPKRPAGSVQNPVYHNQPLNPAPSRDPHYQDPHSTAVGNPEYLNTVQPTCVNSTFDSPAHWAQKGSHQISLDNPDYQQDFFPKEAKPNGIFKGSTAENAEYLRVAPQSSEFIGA
Another assay addresses EGFR T790ML858R (Homo sapiens, UniProt P00533, L858R/T790M). Description: EGFR T790ML858R Lance assay. The class given is biochemical. How it is done:
(§2) Inhibition is indicated as […] [nM] (“−”=not measured). Compounds having an activity designated as “A” provided an IC50≤100 nM; compounds having an activity designated as “B” provided an 100 nM<IC50≤500 nM; compounds having an activity designated as “C” provided an 500 nM<IC50≤1000 nM; compounds having an activity designated as “D” provided an 1000 nM<IC50≤100000 nM; and compounds having an activity designated as “E” provided an IC50>10000 nM.

The target in the next assay is EGFR wt (Homo sapiens, UniProt P00533). Description: EGFR wt Lance assay. The class given is biochemical. The method, then:
as §2

In a further assay the test system is H1975. Put plainly: H1975 CellTiter-Glo. Conditions: Homo sapiens, NCI-H1975; 72 h compound incubation; read-out: H1975 CTG IC50. The class given is cell-based. The essentials:
(§3)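 Antiproliferative IC50 values come from a 72 h treatment of cultured cells, measured by CellTiter-Glo ATP luminescence. Only runs with a Z′-factor of at least 0.5, calculated from 16 vehicle and 16 Staurosporine (10 μM) control wells, are reported.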

The next assay relates to A431. Description: A431 CellTiter-Glo. The class given is cell-based. Conditions: Homo sapiens, A-431; 72 h compound incubation; read-out: A431 CTG IC50. In short, it runs like this: as §3

Chain of EGFR wt (P00533 25-1210): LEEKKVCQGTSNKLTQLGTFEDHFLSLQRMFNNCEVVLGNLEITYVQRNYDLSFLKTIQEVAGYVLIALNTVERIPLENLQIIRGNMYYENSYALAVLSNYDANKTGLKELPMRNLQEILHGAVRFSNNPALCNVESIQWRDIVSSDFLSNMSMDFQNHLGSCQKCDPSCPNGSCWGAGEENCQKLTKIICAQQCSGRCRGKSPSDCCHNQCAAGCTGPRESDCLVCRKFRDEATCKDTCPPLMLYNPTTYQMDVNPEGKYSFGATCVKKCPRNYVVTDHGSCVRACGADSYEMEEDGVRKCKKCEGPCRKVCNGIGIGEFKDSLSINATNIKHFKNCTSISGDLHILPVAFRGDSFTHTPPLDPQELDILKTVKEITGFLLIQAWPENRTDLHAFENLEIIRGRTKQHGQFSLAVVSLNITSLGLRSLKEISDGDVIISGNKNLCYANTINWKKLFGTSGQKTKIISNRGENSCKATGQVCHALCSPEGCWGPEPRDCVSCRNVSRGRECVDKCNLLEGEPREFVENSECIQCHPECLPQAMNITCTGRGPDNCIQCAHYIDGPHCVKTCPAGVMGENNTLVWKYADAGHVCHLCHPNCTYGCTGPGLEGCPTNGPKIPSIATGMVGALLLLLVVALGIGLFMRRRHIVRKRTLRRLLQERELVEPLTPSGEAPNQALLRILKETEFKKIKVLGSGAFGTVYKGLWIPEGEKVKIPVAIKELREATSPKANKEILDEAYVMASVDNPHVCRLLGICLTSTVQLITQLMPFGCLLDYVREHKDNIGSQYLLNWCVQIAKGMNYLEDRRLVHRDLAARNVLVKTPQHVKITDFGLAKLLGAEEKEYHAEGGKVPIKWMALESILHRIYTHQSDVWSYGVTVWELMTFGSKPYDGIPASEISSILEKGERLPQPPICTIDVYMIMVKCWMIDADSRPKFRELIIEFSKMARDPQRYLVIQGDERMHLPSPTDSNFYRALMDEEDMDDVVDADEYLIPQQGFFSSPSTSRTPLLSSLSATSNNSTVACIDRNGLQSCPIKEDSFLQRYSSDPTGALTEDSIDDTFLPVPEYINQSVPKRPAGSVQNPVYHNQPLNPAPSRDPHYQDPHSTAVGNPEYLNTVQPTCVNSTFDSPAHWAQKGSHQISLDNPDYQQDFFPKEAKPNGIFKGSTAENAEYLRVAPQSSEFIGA
Chain of EGFR T790ML858R (P00533 25-1210 T790M/L858R): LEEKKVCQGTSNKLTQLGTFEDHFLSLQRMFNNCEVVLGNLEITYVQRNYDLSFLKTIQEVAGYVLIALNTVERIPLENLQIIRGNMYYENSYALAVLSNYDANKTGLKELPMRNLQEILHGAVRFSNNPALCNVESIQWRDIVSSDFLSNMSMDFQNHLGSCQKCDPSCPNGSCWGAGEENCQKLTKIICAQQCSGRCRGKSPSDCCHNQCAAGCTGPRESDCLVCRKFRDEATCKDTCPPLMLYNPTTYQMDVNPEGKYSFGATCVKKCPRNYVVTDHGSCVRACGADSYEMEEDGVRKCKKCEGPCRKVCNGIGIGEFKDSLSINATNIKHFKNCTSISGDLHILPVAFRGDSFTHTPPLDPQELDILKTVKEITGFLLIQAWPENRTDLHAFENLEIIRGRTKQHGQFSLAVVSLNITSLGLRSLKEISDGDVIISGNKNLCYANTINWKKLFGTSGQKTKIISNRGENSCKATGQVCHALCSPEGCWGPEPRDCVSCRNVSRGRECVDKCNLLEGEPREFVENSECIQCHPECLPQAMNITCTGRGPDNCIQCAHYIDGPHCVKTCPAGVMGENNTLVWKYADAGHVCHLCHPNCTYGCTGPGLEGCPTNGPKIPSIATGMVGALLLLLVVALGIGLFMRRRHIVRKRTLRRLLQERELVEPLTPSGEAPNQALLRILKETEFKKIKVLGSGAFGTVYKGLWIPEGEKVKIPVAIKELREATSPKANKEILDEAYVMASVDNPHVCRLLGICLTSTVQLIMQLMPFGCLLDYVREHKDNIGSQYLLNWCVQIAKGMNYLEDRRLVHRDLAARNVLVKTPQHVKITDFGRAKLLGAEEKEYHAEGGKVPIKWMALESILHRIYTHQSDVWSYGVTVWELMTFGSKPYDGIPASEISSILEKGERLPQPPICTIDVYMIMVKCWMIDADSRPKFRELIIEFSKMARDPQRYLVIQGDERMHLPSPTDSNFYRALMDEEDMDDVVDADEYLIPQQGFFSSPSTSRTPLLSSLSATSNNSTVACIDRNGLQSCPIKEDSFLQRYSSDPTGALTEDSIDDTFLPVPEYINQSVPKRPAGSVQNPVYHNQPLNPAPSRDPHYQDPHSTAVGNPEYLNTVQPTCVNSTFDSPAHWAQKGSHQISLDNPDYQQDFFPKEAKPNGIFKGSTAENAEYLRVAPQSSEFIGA
Chain of Her2 Exon 20 INSYVMA Ba/F3 (P04626 with tags, fused parts or gaps DUP772-775): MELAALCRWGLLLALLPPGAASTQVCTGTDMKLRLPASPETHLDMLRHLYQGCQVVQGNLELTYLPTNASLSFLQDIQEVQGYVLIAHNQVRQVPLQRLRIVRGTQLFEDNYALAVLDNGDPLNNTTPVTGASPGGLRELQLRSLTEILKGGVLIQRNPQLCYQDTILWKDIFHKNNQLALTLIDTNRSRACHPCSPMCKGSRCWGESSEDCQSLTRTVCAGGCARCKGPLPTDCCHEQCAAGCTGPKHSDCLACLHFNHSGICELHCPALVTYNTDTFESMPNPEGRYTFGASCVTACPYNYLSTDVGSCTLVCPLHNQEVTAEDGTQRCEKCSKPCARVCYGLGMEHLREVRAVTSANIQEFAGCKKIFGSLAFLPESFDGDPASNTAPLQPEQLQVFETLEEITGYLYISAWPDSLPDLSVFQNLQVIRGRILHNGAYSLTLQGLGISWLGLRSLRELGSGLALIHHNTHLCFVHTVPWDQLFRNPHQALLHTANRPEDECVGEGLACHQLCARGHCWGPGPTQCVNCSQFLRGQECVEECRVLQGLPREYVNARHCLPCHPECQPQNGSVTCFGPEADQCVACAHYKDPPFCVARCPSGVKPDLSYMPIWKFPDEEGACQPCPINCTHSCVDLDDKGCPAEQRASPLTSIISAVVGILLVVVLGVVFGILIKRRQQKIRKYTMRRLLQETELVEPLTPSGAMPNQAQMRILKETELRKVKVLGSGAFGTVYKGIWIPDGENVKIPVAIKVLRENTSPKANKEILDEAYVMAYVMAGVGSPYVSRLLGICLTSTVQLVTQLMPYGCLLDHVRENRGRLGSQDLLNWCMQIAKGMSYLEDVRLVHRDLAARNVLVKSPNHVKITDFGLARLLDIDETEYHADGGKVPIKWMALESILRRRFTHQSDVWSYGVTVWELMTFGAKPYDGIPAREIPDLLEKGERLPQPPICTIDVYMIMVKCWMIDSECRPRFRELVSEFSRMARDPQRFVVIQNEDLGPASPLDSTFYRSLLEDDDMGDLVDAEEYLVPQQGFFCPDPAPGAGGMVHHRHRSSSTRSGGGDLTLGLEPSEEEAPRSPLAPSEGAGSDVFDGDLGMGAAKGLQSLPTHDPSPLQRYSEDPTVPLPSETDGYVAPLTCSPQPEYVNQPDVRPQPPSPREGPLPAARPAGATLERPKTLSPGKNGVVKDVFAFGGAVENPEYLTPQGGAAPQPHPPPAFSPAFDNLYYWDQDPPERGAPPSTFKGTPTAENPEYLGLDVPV

Consider `C=CC(=O)Nc1cc(-c2c(-c3ccc(N(C)CCN(C)C)cc3)[nH]c3ncc(C(=O)O)cc23)ccc1C` [Example 153, 3-(3-acrylamido-4-methylphenyl)-2-(4-((2-(dimethylamino)ethyl)(methyl)amino)phenyl)-1H-pyrrolo[2,3-b]pyridine-5-carboxylic acid 2,2,2-trifluoroacetate], for which the IC50 against HER2 INS YVMA was at most 100 nM; against EGFR T790ML858R it was at most 100 nM; against EGFR wt it was at most 100 nM; with H1975, over 10000 nM; in the assay with A431 it was over 10000 nM. The GI50 in assay [1] and in assay [2] was over 10000 nM throughout.

As to `C#CC(=O)Nc1cc(-c2c(-c3ccc(N4CCN(C)CC4)cc3)[nH]c3nccc(Cl)c23)ccc1C` [Example 144, N-(5-(4-chloro-2-(4-(4-methylpiperazin-1-yl)phenyl)-1H-pyrrolo[2,3-b]pyridin-3-yl)-2-methylphenyl)propiolamide 2,2,2-trifluoroacetate], the IC50 is at most 100 nM against HER2 INS YVMA; at most 100 nM at EGFR T790ML858R; at most 100 nM against EGFR wt; 1000 to 100000 nM in the assay with H1975; 1000 to 100000 nM with A431. Besides, the GI50 in assay [1] and in assay [2] was 1000 to 10000 nM each time.

For the compound `C=CC(=O)Nc1cc(-c2c(-c3ccc(N4CCN(C)CC4)cc3)[nH]c3ncc(C(=O)NCCc4ccncc4)cc23)ccc1C` [Example 123, 3-(3-acrylamido-4-methylphenyl)-2-(4-(4-methylpiperazin-1-yl)phenyl)-N-(2-(pyridin-4-yl)ethyl)-1H-pyrrolo[2,3-b]pyridine-5-carboxamide], the IC50 on HER2 INS YVMA was 500 to 1000 nM; at EGFR T790ML858R, at most 100 nM; against EGFR wt, at most 100 nM; in the assay with H1975 it was over 10000 nM; with A431, 1000 to 100000 nM. Further, the GI50 in assay [1] and in assay [2] was 1000 to 10000 nM in each case.

For the compound `Cc1ccc(-c2c(-c3ccc(N4CCN(C)CC4)cc3)[nH]c3ncc(C(=O)OC(C)C)cc23)cc1NC(=O)/C=C/CN(C)C` [Example 148, (E)-isoproyl 3-(3-(4-(dimethylamino)but-2-enamido)-4-methylphenyl)-2-(4-(4-methylpiperazin-1-yl)phenyl)-1H-pyrrolo[2,3-b]pyridine-5-carboxylate 2,2,2-trifluoroacetate], the half-maximal inhibitory concentration (IC50) on HER2 INS YVMA is at most 100 nM; against EGFR T790ML858R, at most 100 nM; against EGFR wt it was at most 100 nM; with H1975, 500 to 1000 nM; with A431, 1000 to 100000 nM. The GI50 in assay [1] is 100 to 500 nM; in assay [2] it was 500 to 1000 nM.

With `Cc1ccc(-c2c(-c3ccc(N4CCN(C)CC4)cc3)[nH]c3nccc(Cl)c23)cc1NC(=O)/C=C/CN(C)C` [Example 143, (E)-N-(5-(4-chloro-2-(4-(4-methylpiperazin-1-yl)phenyl)-1H-pyrrolo[2,3-b]pyridin-3-yl)-2-methylphenyl)-4-(dimethylamino)but-2-enamide 2,2,2-trifluoroacetate], the IC50 was at most 100 nM against HER2 INS YVMA; at most 100 nM against EGFR T790ML858R; at most 100 nM against EGFR wt; 100 to 500 nM with H1975; 1000 to 100000 nM in the assay on A431. In addition, the GI50 in assay [1] and in assay [2] was 100 to 500 nM in each case.

Take `C=CC(=O)Nc1cc(-c2c(-c3ccc(N4CCN(C)CC4)cc3)[nH]c3ncc(C(=O)NCc4cccc(S(N)(=O)=O)c4)cc23)ccc1C` [Example 126, 3-(3-acrylamido-4-methylphenyl)-2-(4-(4-methylpiperazin-1-yl)phenyl)-N-(3-sulfamoylbenzyl)-1H-pyrrolo[2,3-b]pyridine-5-carboxamide]: the IC50 was 100 to 500 nM at HER2 INS YVMA; at most 100 nM against EGFR T790ML858R; at most 100 nM against EGFR wt; over 10000 nM in the assay on H1975; over 10000 nM in the assay with A431. The GI50 in assay [1] and in assay [2] was over 10000 nM throughout.

Consider `C=CC(=O)Nc1cc(-c2c(-c3cccc(CN4CCN(C(C)=O)CC4)c3)[nH]c3ncc(C(=O)OC(C)C)cc23)ccc1C` [Example 186, isopropyl 2-(3-((4-acetylpiperazin-1-yl)methyl)phenyl)-3-(3-acrylamido-4-methylphenyl)-1H-pyrrolo[2,3-b]pyridine-5-carboxylate], for which the IC50 is 100 to 500 nM at HER2 INS YVMA; 100 to 500 nM at EGFR T790ML858R; at most 100 nM against EGFR wt; 1000 to 100000 nM in the assay on H1975; 1000 to 100000 nM in the assay on A431. Besides, the GI50 in assay [1] and in assay [2] was 1000 to 10000 nM each time.

For the compound `C=CC(=O)Nc1cc(-c2c(-c3ccc(N4CCN(C)CC4)cc3)[nH]c3ncc(C(=O)NCc4cccnc4)cc23)ccc1C` [Example 128, 3-(3-acrylamido-4-methylphenyl)-2-(4-(4-methylpiperazin-1-yl)phenyl)-N-(pyridin-3-ylmethyl)-1H-pyrrolo[2,3-b]pyridine-5-carboxamide], the IC50 is at most 100 nM on HER2 INS YVMA; at most 100 nM against EGFR T790ML858R; at most 100 nM against EGFR wt; 1000 to 100000 nM with H1975; 1000 to 100000 nM with A431. For the same compound, the GI50 in assay [1] and in assay [2] was 1000 to 10000 nM throughout.

With `C=CC(=O)Nc1cc(-c2c(-c3ccc(N4CCN(C)CC4)cc3)[nH]c3ncc(C(=O)NCc4nc5ccccc5[nH]4)cc23)ccc1C` [Example 125, N-((1H-benzo[d]imidazol-2-yl)methyl)-3-(3-acrylamido-4-methylphenyl)-2-(4-(4-methylpiperazin-1-yl)phenyl)-1H-pyrrolo[2,3-b]pyridine-5-carboxamide], the IC50 is 1000 to 10000 nM at HER2 INS YVMA; 100 to 500 nM at EGFR T790ML858R; at most 100 nM against EGFR wt; 100 to 500 nM in the assay with H1975; 1000 to 100000 nM with A431. Besides, the GI50 in assay [1] and in assay [2] was 1000 to 10000 nM each time.

Consider `C=CC(=O)Nc1cc(-c2c(-c3ccc(N4CCN(C)CC4)cc3)[nH]c3ncc(C(=O)NCc4ccccc4)cc23)ccc1C` [Example 118, 3-(3-acrylamido-4-methylphenyl)-N-benzyl-2-(4-(4-methylpiperazin-1-yl)phenyl)-1H-pyrrolo[2,3-b]pyridine-5-carboxamide 2,2,2-trifluoroacetate], for which the IC50 was at most 100 nM against HER2 INS YVMA; at most 100 nM on EGFR T790ML858R; at most 100 nM on EGFR wt; 500 to 1000 nM in the assay with H1975; 500 to 1000 nM in the assay on A431. Also, the GI50 in assay [1] and in assay [2] was 100 to 500 nM in each case.

On to `C=CC(=O)Nc1cc(-c2c(-c3ccc(N4CCN(C)CC4)cc3)[nH]c3ncc(CC(=O)OC4COC4)cc23)ccc1C` [Example 197, oxetan-3-yl 2-(3-(3-acrylamido-4-methylphenyl)-2-(4-(4-methylpiperazin-1-yl)phenyl)-1H-pyrrolo[2,3-b]pyridin-5-yl)acetate], for which the IC50 against HER2 INS YVMA is at most 100 nM; against EGFR T790ML858R it was at most 100 nM; against EGFR wt, at most 100 nM; in the assay on H1975 it was 500 to 1000 nM; with A431 it was 1000 to 100000 nM. Also, the values for the GI50 in assay [1] and in assay [2] were 1000 to 10000 nM and 100 to 500 nM, respectively.

In the case of `C=CC(=O)N1CCCc2ccc(-c3c(-c4ccc(C5CCN(C)CC5)cc4)[nH]c4nccc(Cl)c34)cc21` [Example 87, 1-(7-(4-chloro-2-(4-(1-methylpiperidin-4-yl)phenyl)-1H-pyrrolo[2,3-b]pyridin-3-yl)-3,4-dihydroquinolin-1(2H)-yl)prop-2-en-1-one], the IC50 on HER2 INS YVMA is at most 100 nM; against EGFR T790ML858R it was at most 100 nM; against EGFR wt, at most 100 nM; with H1975, 100 to 500 nM; in the assay with A431, 1000 to 100000 nM. Besides, the GI50 in assay [1] and in assay [2] was 500 to 1000 nM throughout.

In the case of `C=CC(=O)Nc1cc(-c2c(-c3ccc(N4CCN(C)CC4)cc3)[nH]c3ncc(CC(=O)OC(C)C)cc23)ccc1C` [Example 190, isopropyl 2-(3-(3-acrylamido-4-methylphenyl)-2-(4-(4-methylpiperazin-1-yl)phenyl)-1H-pyrrolo[2,3-b]pyridin-5-yl)acetate 2,2,2-trifluoroacetate], the IC50 was at most 100 nM on HER2 INS YVMA; at most 100 nM on EGFR T790ML858R; at most 100 nM against EGFR wt; 100 to 500 nM in the assay with H1975; 1000 to 100000 nM with A431. For the same compound, the GI50 in assay [1] and in assay [2] was 100 to 500 nM throughout.
